From BindingDB's records for doi:10.1097/00004424-198809001-00017 (Unit&Eacute, 1988) come the findings set out here.

Each structure is given as a SMILES string.

For one assay, the target named is Histamine H3 receptor (Cavia porcellus, UniProt Q9JI35).
A further assay has as its target Hrh3 protein (Rattus norvegicus, UniProt Q5PPG3).

Chain of Hrh3 protein (Q5PPG3 whole entry): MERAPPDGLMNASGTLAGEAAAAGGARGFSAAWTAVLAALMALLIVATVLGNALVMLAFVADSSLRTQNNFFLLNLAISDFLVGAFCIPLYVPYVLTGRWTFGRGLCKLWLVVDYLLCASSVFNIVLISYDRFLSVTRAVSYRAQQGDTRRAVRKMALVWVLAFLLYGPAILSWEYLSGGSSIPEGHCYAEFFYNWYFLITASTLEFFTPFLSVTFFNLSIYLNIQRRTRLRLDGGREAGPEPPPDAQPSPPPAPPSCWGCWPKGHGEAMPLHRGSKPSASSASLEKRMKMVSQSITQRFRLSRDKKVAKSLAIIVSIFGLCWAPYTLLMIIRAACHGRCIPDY
Chain of Histamine H3 receptor (Q9JI35 whole entry): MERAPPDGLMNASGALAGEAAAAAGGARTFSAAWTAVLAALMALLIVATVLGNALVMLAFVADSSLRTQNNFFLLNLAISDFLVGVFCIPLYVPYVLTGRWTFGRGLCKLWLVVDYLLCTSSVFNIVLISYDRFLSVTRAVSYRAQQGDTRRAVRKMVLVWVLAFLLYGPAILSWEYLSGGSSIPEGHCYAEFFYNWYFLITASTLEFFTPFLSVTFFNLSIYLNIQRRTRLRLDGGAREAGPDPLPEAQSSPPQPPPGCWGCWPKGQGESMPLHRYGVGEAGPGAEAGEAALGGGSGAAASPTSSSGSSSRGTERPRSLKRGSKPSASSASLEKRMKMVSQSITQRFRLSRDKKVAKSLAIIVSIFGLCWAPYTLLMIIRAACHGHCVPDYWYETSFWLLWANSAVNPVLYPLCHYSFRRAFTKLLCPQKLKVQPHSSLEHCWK

The Ki is a measure of affinity in units of concentration, obtained from inhibition or displacement. The low end stands for higher affinity, the high end for lower affinity. Regarding `C[C@@H](N)Cc1c[nH]cn1`, the Ki on Histamine H3 receptor worked out at 813 nM.

Regarding `C[C@H](N)Cc1c[nH]cn1` [CAS_75614-93-6], the Ki was 52 nM at Histamine H3 receptor and 11 nM at Hrh3 protein.

Consider `NCCc1c[nH]cn1` [[3H]histamine], for which the inhibition constant Ki on Histamine H3 receptor and on Hrh3 protein was 100 nM throughout.

Compound `c1ncc(CCN2CCCC2)[nH]1` [4-[2-(1-Pyrrolidinyl)ethyl]-imidazole] came in with a Ki on Histamine H3 receptor of 6 nM.

Turning to `S=C(NC1CCCCC1)N1CCC(c2cnc[nH]2)CC1`, the Ki at Histamine H3 receptor was 2 nM; at Hrh3 protein, 2.1 nM.
